Results from BindingDB's records for doi:10.1021/ja057257n (University of Pennsylvania, 2006).

Tests used:
Carbonic anhydrase 2 = Carbonic anhydrase 2 (Homo sapiens, UniProt P00918); test: Competitive Displacement Binding Assay; conditions: pH 7; 25 °C
Method: (§1) The dissociation constant of the hCA and inhibitor complex was determined by competitive displacement of a fixed concentration of dansylamide by increasing concentrations of the inhibitor using Perkin-Elmer lambda 50-B spectrofluorometer. […] The dissociation constant of the enzyme-inhibitor complex was determined by monitoring the decrease in the fluorescence of the enzyme-dansylamide complex as a function of the increasing concentration of the inhibitor.

Carbonic anhydrase 1 = Carbonic anhydrase 1 (Homo sapiens, UniProt P00915); test: Competitive Displacement Binding Assay; conditions: pH 7; 25 °C
Method: as §1

Chain of Carbonic anhydrase 1 (P00915 whole entry): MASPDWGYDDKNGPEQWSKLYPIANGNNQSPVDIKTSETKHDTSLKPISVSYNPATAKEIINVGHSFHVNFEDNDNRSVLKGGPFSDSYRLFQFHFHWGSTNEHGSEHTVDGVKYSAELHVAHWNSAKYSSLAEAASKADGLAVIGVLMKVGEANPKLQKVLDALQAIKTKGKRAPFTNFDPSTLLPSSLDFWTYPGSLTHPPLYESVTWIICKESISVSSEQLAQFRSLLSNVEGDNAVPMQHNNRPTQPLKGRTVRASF

Kd (Carbonic anhydrase 2): 235 nM
Kd (Carbonic anhydrase 1): 200 nM
Structure (SMILES): NS(=O)(=O)c1ccc(CCNC(=O)c2ccc(CN(CC(=O)O)CC(=O)O)cc2)cc1 [copper(2+) ion 2-[(carboxylatomethyl)[(4-{[2-(4-sulfamoylphenyl)ethyl]carbamoyl}phenyl)methyl]amino]acetate]
